Read-outs that look alike come from different tables or passages of the source.
Tests used:
[1] = test system: MES-SA/Dx5 doxorubicin-resistant subline; assay: MTT-based cytotoxicity assay, MES-SA/Dx5; type: cell-based, human; settings: for Degree of resistance (MES-SA/Dx5): IC50 of the resistant line divided by IC50 of sensitive MES-SA cells; for IC50: MTT, multidrug resistant subline (MDR1/P-glycoprotein)
Excerpt: (§1) These lines included a uterine sarcoma line, MES-SA. (Harker, W. G.; MacKintosh, F. R.; Sikic, B. I., Development and characterization of a human sarcoma cell line, MES-SA, sensitive to multiple drugs. Cancer Res. 1983, 43, 4943-4950), and its doxorubicin-resistant subline, MES-SA/DxS. (Harker, W. G.; Sikic, B. I., Multidrug (pleiotropic) resistance in doxorubicin-selected variants of the human sarcoma cell line MES-SA. Cancer Res. 1985, 45, 4091-4096). […] However, resistance to bleomycin, cisplatin, carmustine, 5-fluorouracil or methotrexate is not observed. MES-SA/Dx5 cells express high levels of ABCB 1 (MDR1) mRNA and its gene product, the P-glycoprotein. MES-SA and MES-SA/Dx5 were purchased from the American Type Culture Collection (ATCC, Manassas, Va.).

[2] = test system: MES-SA uterine sarcoma line; assay: MTT-based cytotoxicity assay, MES-SA; type: cell-based, human; settings: sensitive parental line
Excerpt: as §1

[3] = test system: CEM/VLB100 cells; assay: MTT-based cytotoxicity assay, CEM/VLB100; type: cell-based, human; settings: for Degree of resistance (CEM/VLB100): IC50 of the resistant line divided by IC50 of sensitive CEM cells; for IC50: vinblastine-resistant subline (MDR1)
Experimental: (§2) The second set of cells tested, CCRF-CEM or simply CEM, were derived from the blood of a patient with acute lymphobiastic leukemia. (Foley, G. E.; Lazarus, H.; Farber, S.; Uzman, B. G.; Boone, B. A.; McCarthy, R. E., Continuous Culture of Human Lymphoblasts from Peripheral Blood of a Child with Acute Leukemia. Cancer 1965, 18, 522-529). The subline CEM/VLB100 was developed to be resistant to up to vinblastine at 100 ng/ml. (Beck, W. T.; Mueller, T. J.; Tanzer, L. R., Altered surface membrane glycoproteins in Vinca alkaloid-resistant human leukemic lymphoblasts. Cancer Res. 1979, 39, 2070-2076). Drug resistance is achieved by overexpression of the MDR1 gene. Resistance in the CEM subline designated CEM/VM-1-5, however, is “atypical.” (Danks, M. K.; Yalowich, J. C.; Beck, W. T., Atypical multiple drug resistance in a human leukemic cell line selected for resistance to teniposide (VM-26). Cancer Res. 1987, 47, 1297-1301). The classes of drugs included in the “classic” multiple drug resistance phenotype are Vinca alkaloids, anthracyclines, epipodophyllotoxins and antibiotics. However, CEM/VM-1-5 cells retain sensitivity to the Vinca alkaloids despite resistance and cross-resistance to etoposide, anthracyclines and mitoxantrone. (Danks, M. K.; Schmidt, C. A.; Cirtain, M. C.; Suttle, D. P.; Beck, W. T., Altered catalytic activity of and DNA cleavage by DNA topoisomerase II from human leukemic cells selected for resistance to VM-26. Biochemistry 1988, 27, 8861-8869). Resistance in CEM/VM-1-5 cells is effected by over expression of the ABCC1 (MRP1) gene. CEM, CEM/VLB100 and CEM/VM-1-5 cells were obtained from Dr. WT Beck, University of Illinois at Chicago.

[4] = test system: CCRF-CEM (CEM) cells; assay: MTT-based cytotoxicity assay, CEM; type: cell-based, human; settings: sensitive parental line
Excerpt: as §1, §2

[5] = test system: 22Rv1; assay: MTS proliferation assay, 22Rv1; type: cell-based; settings: read-out: MTS-6: 72 hr proliferation IC50, 22Rv1
Experimental: (§3) Day 1: Cells were plated in appropriate growth medium at 5×10^3 per well in 100 μL in 96 well tissue culture plates, Falcon, one plate for each drug to be tested. Column 1 was blank; it contained medium, but no cells. The plates were incubated overnight at 37° C. in 5% CO2 to allow attachment. Day 2: Drug diluted in culture media was added to the cells at a concentration of 0.005 nM to 10 μM in quadruplicate. After 48-72 hours of drug exposure, the MTS agent was added to all wells and incubated 1-6 hrs (37° C., 5% CO2), depending on cell type, as per CellTiter 96® AQueous Non-Radioactive Cell Proliferation Assay (MTS), Promega. Plates were processed using a Bio-Tek Synergy HT Multi-detection microtiter plate reader at 490 nanometer wavelength and data were processed with KC4V.3 software. Data plots of drug concentration vs. absorbance were plotted and IC50 values were extrapolated for each of the tested compounds.

[6] = test system: MV522; assay: MTS proliferation assay, MV522; type: cell-based; settings: read-out: MTS-6: 72 hr proliferation IC50, MV522
Experimental: as §3

[7] = test system: tubulin; assay: tubulin protein assembly assay; type: biochemical; settings: for ED50/ED50 (Paclitaxel): ratio to paclitaxel; for EC50: tubulin assembly, read-out: ED50 (the source's name)
[8] = test system: cancer cell lines, both MDR expressing and non-MDR expressing; assay: MTS proliferation assay, cell line panel (general statements); type: cell-based
Experimental: as §3

[9] = test system: CEM/VM-1-5 cells; assay: MTT-based cytotoxicity assay, CEM/VM-1-5; type: cell-based, human; settings: for Degree of resistance (CEM/VM-1-5): IC50 of the resistant line divided by IC50 of sensitive CEM cells; for IC50: MTT, atypical MDR subline (ABCC1/MRP1)
Experimental: as §2

[10] = test system: HCT-15 (MDR+); assay: MTS proliferation assay, HCT-15; type: cell-based; settings: read-out: MTS-6: 72 hr proliferation IC50, HCT-15
Experimental: as §3

[11] = test system: A2780-A5; assay: MTS proliferation assay, A2780-A5; type: cell-based; settings: read-out: MTS-6: 72 hr proliferation IC50, A2780-A5
Experimental: as §3

[12] = test system: MDAH2774; assay: MTS proliferation assay, MDAH2774; type: cell-based; settings: read-out: MTS-6: 72 hr proliferation IC50, MDAH2774
Experimental: as §3

[13] = test system: A2680-DXR1 (MDR+); assay: MTS proliferation assay, A2680-DXR1; type: cell-based; settings: 72 hr, read-out: MTS-6: 72 hr proliferation IC50, A2680-DXR1
Experimental: as §3

[14] = test system: KB; assay: MTS proliferation assay, KB; type: cell-based; settings: Homo sapiens, MDR negative, extrapolated outside tested range
Experimental: as §3

[15] = test system: HT29; assay: MTS proliferation assay, HT29; type: cell-based; settings: Homo sapiens, HT-29, MDR negative, extrapolated outside tested range
Experimental: as §3

[16] = test system: MDAMB435s; assay: MTS proliferation assay, MDAMB435s; type: cell-based; settings: Homo sapiens, MDA-MB-435S, MDR negative, extrapolated outside tested range
Experimental: as §3

[17] = test system: DU145; assay: MTS proliferation assay, DU145; type: cell-based; settings: Homo sapiens, DU-145, MDR negative, extrapolated outside tested range
Experimental: as §3

[18] = test system: SKNAS; assay: MTS proliferation assay, SKNAS; type: cell-based; settings: Homo sapiens, SK-N-AS, MDR negative, extrapolated outside tested range
Experimental: as §3

[19] = test system: MV522/Mdr1; assay: MTS proliferation assay, MV522/Mdr1; settings: read-out: IC50 MV522/Mdr1
Experimental: as §3

[20] = test system: MESSA/DOX; assay: MTS proliferation assay, MESSA/DOX; type: cell-based; settings: Homo sapiens, MDR positive
Experimental: as §3

[21] = test system: KBV; assay: MTS proliferation assay, KBV; type: cell-based; settings: MDR positive
Experimental: as §3

Compound	Degree of resistance (MES-SA/Dx5) [1]	IC50 [1] [nM]	IC50 [2] [nM]	Degree of resistance (CEM/VLB100) [3]	IC50 ([3]; MTT) [nM]	IC50 [4] [nM]	ED50/ED50 (Paclitaxel) [7]	EC50 [7] [nM]	Degree of resistance (CEM/VM-1-5) [9]	IC50 [9] [nM]	IC50 ([9]; Homo sapiens) [nM]	IC50 ([1]; Homo sapiens, MES-SA/Dx5) [nM]	IC50 ([2]; Homo sapiens, MES-SA) [nM]	other results
C=CC1OC2CC3OCC3(OC(C)=O)C3C(OC(=O)c4ccccc4)C4(O)CC(OC(=O)C(O)C(CC(C)C)NC(=O)OC(C)(C)C)C(C)=C(C(OC(C)=O)C(O1)C23C)C4(C)C (mixture of isomers) [10-αTX (14a.2)]	1.1 ± 0.3	34 ± 24	30 ± 14	3 ± 0.6	43 ± 23	14 ± 5								
C=CC1OC2CC3OCC3(OC(C)=O)C3C(OC(=O)c4ccccc4)C4(C(C)(C)O)CC(OC(=O)C(O)C(CC(C)C)NC(=O)OC(C)(C)C)C(C)=C4C(OC(C)=O)C(O1)C23C (stereo not drawn) [10-αAT (15a.2)]	1.6 ± 0.8	15 ± 8	9.5 ± 0.7	4 ± 0	19 ± 9	5 ± 3	0.53	1580 ± 460	1.3 ± 1.4	5 ± 4				IC50 ([5]; 72 hr): 5.7 nM; IC50 ([6]; 72 hr): 3.5 nM; affinity for tubulin (in words) ([7]; compared to several recognized tubulin binding agents): surprisingly great affinity for tubulin; IC50 [8]: < 1000 nM; IC50 ([10]; 72 hr): 2.4 nM; IC50 ([11]; 72 hr): 0.282 nM; IC50 ([12]; 72 hr): 0.18 nM; IC50 [13]: 15 nM
C=C[C@H]1O[C@H]2C[C@H]3OC[C@@]3(OC(C)=O)[C@H]3[C@H](OC(=O)c4ccccc4)[C@]4(C(C)(C)O)C[C@H](OC(=O)[C@H](O)[C@H](CC(C)C)NC(=O)OC(C)(C)C)C(C)=C4[C@@H](OC(C)=O)[C@H](O1)[C@]23C [10-βAT (15b.2)]	0.75 ± 0.07	328 ± 173	432 ± 261	4 ± 0.3	453 ± 293	112 ± 60			0.9 ± 0.5	77 ± 6				
C=CC1OC2CC3OCC3(OC(C)=O)C3C(OC(=O)c4ccccc4)C4(O)CC(OC(=O)C(O)C(CC(C)C)NC(=O)OC(C)(C)C)C(C)=C(C(OC(C)=O)C(O1)C23C)C4(C)C (stereo not drawn) [10-βTX (14b.2), 10-beta taxane acrolein acetal]	1.2 ± 0.5			3 ± 1					1.2 ± 0.3		9 ± 1	36 ± 34	28 ± 16	IC50 ([3]; Homo sapiens, CEM/VLB100, MTT): 22 ± 11 nM; IC50 ([4]; Homo sapiens, CCRF-CEM): 7.5 ± 0.7 nM
CC(=O)O[C@@]12CO[C@@H]1C[C@H](O)[C@@]1(C)C(=O)[C@H](O)C3=C(C)[C@@H](OC(=O)[C@H](O)[C@@H](NC(=O)OC(C)(C)C)c4ccccc4)C[C@@](O)([C@@H](OC(=O)c4ccccc4)[C@H]21)C3(C)C [Docetaxel]							1.07	3180 ± 450						
CC(=O)O[C@H]1C(=O)[C@@]2(C)[C@H]([C@H](OC(=O)c3ccccc3)[C@]3(O)C[C@H](OC(=O)[C@H](O)[C@@H](NC(=O)c4ccccc4)c4ccccc4)C(C)=C1C3(C)C)[C@]1(OC(C)=O)CO[C@@H]1C[C@@H]2O [Paclitaxel]	3105 ± 2416				3030				4	8	< 11	19400 ± 204	9 ± 7	IC50 ([5]; Homo sapiens, 22Rv1, 72 h): 1.7 nM; IC50 ([6]; MV522, 72 h): 1.71 nM; IC50 [14]: < 0.002 nM; IC50 [15]: < 0.002 nM; IC50 [16]: < 0.002 nM; IC50 [17]: < 0.002 nM; IC50 ([10]; Homo sapiens, HCT-15, 72 hr): 311 nM; IC50 [18]: < 0.002 nM; IC50 [19]: ≥ 500 nM; IC50 ([11]; 72 h): < 0.002 nM; IC50 [20]: ≥ 500 nM; IC50 ([12]; Homo sapiens, MDAH 2774, 72 h): 0.015 nM; IC50 [13]: 3580 nM; IC50 [21]: ≥ 500 nM
CC[C@]1(O)C[C@@H]2CN(CCc3c([nH]c4ccccc34)[C@@](C(=O)OC)(c3cc4c(cc3OC)N(C)[C@H]3[C@@](O)(C(=O)OC)[C@H](OC(C)=O)[C@]5(CC)C=CCN6CC[C@]43[C@@H]65)C2)C1 [Vinblastine]	38.5 ± 0.7			255 ± 127					1.2 ± 0.07		1.3 ± 0.9	43 ± 12	[…]	IC50 ([3]; Homo sapiens, CEM/VLB100, MTT): 227 ± 77 nM; IC50 ([4]; Homo sapiens, CCRF-CEM): 1 ± 0.8 nM
Doxorubicin	49	97	2	150	2100	14			219	3060				

— patent publication US20160176894A1, “TAXANE AND ABEO-TAXANE ANALOGS” (Arbor Therapeutics, LLC, priority 2013, published 2016)
